Tests used:
Details in all cases: 72 h
HCC1937 [1] = tested on: HCC1937
Method: (§1)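 Drug sensitivity and resistance testing (DSRT) of breast cancer cell lines in 384-well plates, 5 concentrations in 10-fold dilutions over a compound-specific 10,000-fold range. After 72 h, cytotoxicity was read by CellTox Green fluorescence and viability by CellTiter-Glo luminescence (multiplexed), normalised to DMSO and benzethonium chloride controls. EC50 is the inflection point of the fitted dose-response curve (bottom asymptote free, so it can be relative for partial curves) and is censored at the highest tested concentration. Rows with DSS 0 (no meaningful response) were excluded.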

MDA-MB-468 [2] = tested on: MDA-MB-468
Method: as §1

HDQ-P1 [3] = tested on: HDQ-P1
How it was run: (§2)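 A 20 µl suspension of breast cancer cells was placed in 384-well plates that already contained compound at 5 concentrations in 10-fold steps across a compound-specific 10,000-fold range, and the plates were left for 72 h. CellTox Green fluorescence at 485/520 nm gave cell death, and CellTiter-Glo luminescence, read after 10 min at room temperature, gave viability. Each plate was normalised to 0.1 % DMSO and a positive kill control. EC50 was fitted from the curves and censored at the top concentration.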

HCC1937 [4] = tested on: HCC1937; remark: listed apart in the source
How it was run: as §2

HCC1143 [5] = tested on: HCC1143
How it was run: as §2

MDA-MB-231 [6] = tested on: MDA-MB-231
How it was run: as §2

HCC1599 [7] = tested on: HCC1599
How it was run: as §2

BT-474 [8] = tested on: BT-474
How it was run: as §2

MDA-MB-436 [9] = tested on: MDA-MB-436
How it was run: as §2

MDA-MB-453 [10] = tested on: MDA-MB-453
How it was run: as §2

MFM-223 [11] = tested on: MFM-223
How it was run: as §2

DU-4475 [12] = tested on: DU-4475
How it was run: as §2

CAL-148 [13] = tested on: CAL-148
How it was run: as §2

MCF-10A = tested on: MCF-10A
How it was run: as §2

MDA-MB-468 [14] = tested on: MDA-MB-468; remark: listed apart in the source
How it was run: as §2

CAL-120 [15] = tested on: CAL-120
How it was run: as §2

Hs578T [16] = tested on: Hs578T
How it was run: as §2

CAL-85-1 [17] = tested on: CAL-85-1
How it was run: as §2

HDQ-P1 [18] = tested on: HDQ-P1; remark: listed apart in the source
Method: as §1

MDA-MB-231 [19] = tested on: MDA-MB-231; remark: listed apart in the source
Method: as §1

HCC1599 [20] = tested on: HCC1599; remark: listed apart in the source
Method: as §1

MFM-223 [21] = tested on: MFM-223; remark: listed apart in the source
Method: as §1

DU-4475 [22] = tested on: DU-4475; remark: listed apart in the source
Method: as §1

CAL-148 [23] = tested on: CAL-148; remark: listed apart in the source
Method: as §1

CAL-120 [24] = tested on: CAL-120; remark: listed apart in the source
Method: as §1

Hs578T [25] = tested on: Hs578T; remark: listed apart in the source
Method: as §1

CAL-51 [26] = tested on: CAL-51
Method: as §1

CAL-85-1 [27] = tested on: CAL-85-1; remark: listed apart in the source
Method: as §1

SK-BR-3 [28] = tested on: SK-BR-3
How it was run: as §2

BT-549 [29] = tested on: BT-549
How it was run: as §2

CAL-51 [30] = tested on: CAL-51; remark: listed apart in the source
How it was run: as §2

HDQ-P1 [31] = tested on: HDQ-P1; remark: listed apart in the source
How it was run: (§3)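 For viability, cells received 2.5 µl CellTiter-Blue for 2 h at 37 °C and fluorescence was read at 560/590 nm. Before this, breast cancer cell lines in 20 µl suspension had been incubated for 72 h on 384-well plates pre-loaded with compound dissolved in 5 µl medium. EC50 was obtained from a percent-inhibition dose-response fit censored at the highest concentration, after normalisation of each plate to vehicle and a positive kill control; rows with a zero drug sensitivity score were discarded.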

MDA-MB-453 [32] = tested on: MDA-MB-453; remark: listed apart in the source
How it was run: as §3

DU-4475 [33] = tested on: DU-4475; remark: listed apart in the source
How it was run: as §3

CAL-148 [34] = tested on: CAL-148; remark: listed apart in the source
How it was run: as §3

CAL-51 [35] = tested on: CAL-51; remark: listed apart in the source
How it was run: as §3

CAL-85-1 [36] = tested on: CAL-85-1; remark: listed apart in the source
How it was run: as §3

HCC1937 [37] = tested on: HCC1937; remark: listed apart in the source
How it was run: as §3

HCC1143 [38] = tested on: HCC1143; remark: listed apart in the source
How it was run: as §3

MDA-MB-231 [39] = tested on: MDA-MB-231; remark: listed apart in the source
How it was run: as §3

HCC1599 [40] = tested on: HCC1599; remark: listed apart in the source
How it was run: as §3

BT-474 [41] = tested on: BT-474; remark: listed apart in the source
How it was run: as §3

MDA-MB-436 [42] = tested on: MDA-MB-436; remark: listed apart in the source
How it was run: as §3

MFM-223 [43] = tested on: MFM-223; remark: listed apart in the source
How it was run: as §3

MDA-MB-468 [44] = tested on: MDA-MB-468; remark: listed apart in the source
How it was run: as §3

SK-BR-3 [45] = tested on: SK-BR-3; remark: listed apart in the source
How it was run: as §3

CAL-120 [46] = tested on: CAL-120; remark: listed apart in the source
How it was run: as §3

Hs578T [47] = tested on: Hs578T; remark: listed apart in the source
How it was run: as §3

BT-549 [48] = tested on: BT-549; remark: listed apart in the source
How it was run: as §3

O=C(/C=C/c1cccnc1)NCCCCC1CCN(C(=O)c2ccccc2)CC1 [Daporinad]
EC50, CellTox Green (HCC1937 [1]): 24.1 nM
EC50, CellTox Green (MDA-MB-468 [2]): 596 nM
EC50, CellTiter-Glo (HDQ-P1 [3]): 16.3 nM
EC50, CellTiter-Glo (HCC1937 [4]): 6.97 nM
EC50, CellTiter-Glo (HCC1143 [5]): 8.05 nM
EC50, CellTiter-Glo (MDA-MB-231 [6]): 29.6 nM
EC50, CellTiter-Glo (HCC1599 [7]): 4.15 nM
EC50, CellTiter-Glo (BT-474 [8]): 40.8 nM
EC50, CellTiter-Glo (MDA-MB-436 [9]): 67.4 nM
EC50, CellTiter-Glo (MDA-MB-453 [10]): 2.71 nM
EC50, CellTiter-Glo (MFM-223 [11]): 2.11 nM
EC50, CellTiter-Glo (DU-4475 [12]): 6.78 nM
EC50, CellTiter-Glo (CAL-148 [13]): 81 nM
EC50, CellTiter-Glo (MCF-10A): 7.85 nM
EC50, CellTiter-Glo (MDA-MB-468 [14]): 3.53 nM
EC50, CellTiter-Glo (CAL-120 [15]): 9.73 nM
EC50, CellTiter-Glo (Hs578T [16]): 4.27 nM
EC50, CellTiter-Glo (CAL-85-1 [17]): 7.79 nM

COc1cc([C@@H]2c3cc4c(cc3[C@@H](O[C@@H]3O[C@@H]5CO[C@@H](c6cccs6)O[C@H]5[C@H](O)[C@H]3O)[C@H]3COC(=O)[C@H]23)OCO4)cc(OC)c1O [Teniposide]
EC50, CellTox Green (HDQ-P1 [18]): 2380 nM
EC50, CellTox Green (HCC1937 [1]): 100 nM
EC50, CellTox Green (MDA-MB-231 [19]): 1190 nM
EC50, CellTox Green (HCC1599 [20]): 350 nM
EC50, CellTox Green (MFM-223 [21]): 835 nM
EC50, CellTox Green (DU-4475 [22]): 1620 nM
EC50, CellTox Green (CAL-148 [23]): 10.7 nM
EC50, CellTox Green (MDA-MB-468 [2]): 4760 nM
EC50, CellTox Green (CAL-120 [24]): 4090 nM
EC50, CellTox Green (Hs578T [25]): 4000 nM
EC50, CellTox Green (CAL-51 [26]): 879 nM
EC50, CellTox Green (CAL-85-1 [27]): 2390 nM
EC50, CellTiter-Glo (HDQ-P1 [3]): 5210 nM
EC50, CellTiter-Glo (HCC1937 [4]): 2710 nM
EC50, CellTiter-Glo (HCC1143 [5]): 842 nM
EC50, CellTiter-Glo (MDA-MB-231 [6]): 1910 nM
EC50, CellTiter-Glo (HCC1599 [7]): 176 nM
EC50, CellTiter-Glo (BT-474 [8]): 888 nM
EC50, CellTiter-Glo (MDA-MB-436 [9]): 204 nM
EC50, CellTiter-Glo (MFM-223 [11]): 1740 nM
EC50, CellTiter-Glo (DU-4475 [12]): 184 nM
EC50, CellTiter-Glo (CAL-148 [13]): 393 nM
EC50, CellTiter-Glo (MDA-MB-468 [14]): 614 nM
EC50, CellTiter-Glo (SK-BR-3 [28]): 138 nM
EC50, CellTiter-Glo (CAL-120 [15]): 2690 nM
EC50, CellTiter-Glo (Hs578T [16]): 2060 nM
EC50, CellTiter-Glo (BT-549 [29]): 359 nM
EC50, CellTiter-Glo (CAL-51 [30]): 666 nM
EC50, CellTiter-Glo (CAL-85-1 [17]): 1180 nM
EC50, CellTiter-Blue viability (HDQ-P1 [31]): 1700 nM
EC50, CellTiter-Blue viability (MDA-MB-453 [32]): 1840 nM
EC50, CellTiter-Blue viability (DU-4475 [33]): 37.1 nM
EC50, CellTiter-Blue viability (CAL-148 [34]): 220 nM
EC50, CellTiter-Blue viability (CAL-51 [35]): 75.8 nM
EC50, CellTiter-Blue viability (CAL-85-1 [36]): 1450 nM
EC50, CellTiter-Blue viability (HCC1937 [37]): 103 nM
EC50, CellTiter-Blue viability (HCC1143 [38]): 829 nM
EC50, CellTiter-Blue viability (MDA-MB-231 [39]): 2180 nM
EC50, CellTiter-Blue viability (HCC1599 [40]): 1740 nM
EC50, CellTiter-Blue viability (BT-474 [41]): 5940 nM
EC50, CellTiter-Blue viability (MDA-MB-436 [42]): 1180 nM
EC50, CellTiter-Blue viability (MFM-223 [43]): 1850 nM
EC50, CellTiter-Blue viability (MDA-MB-468 [44]): 1080 nM
EC50, CellTiter-Blue viability (SK-BR-3 [45]): 91.7 nM
EC50, CellTiter-Blue viability (CAL-120 [46]): 999 nM
EC50, CellTiter-Blue viability (Hs578T [47]): 3830 nM
EC50, CellTiter-Blue viability (BT-549 [48]): 1510 nM
